Legend:
[1] = test system: A549 (human lung carcinoma) cells; details: read-out: IC50 ± SD A549; MTT method; 48 h; ref 10b; cited from earlier work
[2] = test system: HCT116 (human colon carcinoma cells); details: read-out: IC50 ± SD HCT116; ref 10b; cited from earlier work
[3] = test system: HeLa cells; experiment: Cell cycle analysis in HeLa cells; type: cell-based, human; details: 24 h; for cell cycle arrest, in words: 20 nM; for cell cycle arrest (G2/M accumulation), in words: 100 nM
[4] = test system: tubulin; experiment: Tubulin assembly; type: biochemical; details: for IC50: read-out: Tubulin Assembly IC50 ± SD, tubulin at 10 μM
[5] = test system: MCF-7 human breast carcinoma cells; experiment: cells; details: MCF7, 96 h, read-out: MCF-7 IC50 ± SD
[6] = test system: PC-3 cells; experiment: Cell cycle analysis in PC-3 cells; type: cell-based, human; details: PC-3, lowest concentration (500 nM), 24 h
[7] = test system: HepG2 cells; experiment: Cell cycle analysis in HepG2 cells; type: cell-based, human; details: HepG2, lowest concentration (500 nM), 24 h
[8] = in vitro; details: human, Caco-2
[9] = test system: RD cells; experiment: Cell cycle analysis in RD cells; type: cell-based; details: lowest concentration (500 nM), 24 h
[10] = test system: human liver hepatocellular carcinoma cell line HepG2; experiment: Growth inhibition of HepG2 cells; type: cell-based; details: HepG2, 48 h, read-out: IC50 ± SD HepG2
[11] = test system: HT29 (human colon adenocarcinoma) cells; details: read-out: IC50 ± SD HT-29; MTT method; 48 h; ref 10b; cited from earlier work
[12] = test system: HeLa (human cervical carcinoma) cells; details: read-out: IC50 ± SD HeLA; MTT method; 48 h; ref 10b; cited from earlier work

Compound: COc1ccc(/C=C\c2cc(OC)c(OC)c(OC)c2)cc1O [Compound 2, combretastatin A-4]
- IC50 [1]: > 10000 nM
- IC50 [2]: 5 ± 0.4 nM

Compound: COc1cc(C(=O)c2ccn(-c3ccccc3)c2)cc(OC)c1OC [Compound 4, (1-Phenyl-1H-pyrrol-3-yl)-(3,4,5-trimethoxyphenyl)methanone]
- cell cycle arrest, in words [3]: only a minimal effect
- cell cycle arrest (G2/M accumulation), in words [3]: effectively arrested cell cycle progression

Compound: COc1cc(C(=O)c2cc[nH]c2)cc(OC)c1OC [Compound 9, (1H-Pyrrol-3-yl)(3,4,5-trimethoxyphenyl)methanone]
- effect on tubulin polymerization (in words) [4]: did not inhibit tubulin assembly

Compound: COc1cc(C(=O)c2ccn(C)c2)cc(OC)c1OC [Compound 10, (1-Methyl-1H-pyrrol-3-yl)(3,4,5-trimethoxyphenyl)methanone]
- effect on tubulin polymerization (in words) [4]: did not inhibit tubulin assembly

Compound: O=C(c1ccccc1)c1ccn(-c2ccccc2)c1 [Compound 11, Phenyl(1-phenyl-1H-pyrrol-3-yl)methanone]
- effect on tubulin polymerization (in words) [4]: did not inhibit tubulin assembly
- IC50 [4]: > 20000 nM

Compound: COc1cc(C(=O)c2ccn(-c3ccccc3F)c2)cc(OC)c1OC [Compound 15, (1-(2-Fluorophenyl)-1H-pyrrol-3-yl)(3,4,5-trimethoxyphenyl)-methanone]
- IC50 [4]: ≤ 1000 nM

Compound: COc1cc(C(=O)c2ccn(-c3ccccc3[N+](=O)[O-])c2)cc(OC)c1OC [Compound 18, (1-(2-Nitrophenyl)-1H-pyrrol-3-yl)(3,4,5-trimethoxyphenyl)-methanone]
- IC50 [4]: > 20000 nM

Compound: COc1cc(C(=O)c2ccn(-c3cccc([N+](=O)[O-])c3)c2)cc(OC)c1OC [Compound 19, (1-(3-Nitrophenyl)-1H-pyrrol-3-yl)(3,4,5-trimethoxyphenyl)-methanone]
- IC50 [5]: 230 ± 60 nM

Compound: COc1cc(C(=O)c2ccn(-c3ccc([N+](=O)[O-])cc3)c2)cc(OC)c1OC [Compound 20, (1-(4-Nitrophenyl)-1H-pyrrol-3-yl)(3,4,5-trimethoxyphenyl)-methanone]
- IC50 [4]: > 20000 nM

Compound: COc1cc(C(=O)c2ccn(-c3cccc(N)c3)c2)cc(OC)c1OC [Compound 22, (1-(3-Aminophenyl)-1H-pyrrol-3-yl)(3,4,5-trimethoxyphenyl)-methanone]
- cell cycle arrest, in words [6]: effectively arrested cell cycle progression
- cell cycle arrest, in words [7]: effectively arrested cell cycle progression
- cell cycle arrest, in words [3]: as effective as VBL and 2
- cell cycle arrest (G2/M accumulation), in words [3]: effectively arrested cell cycle progression
- Papp [8]: > 5 ×10⁻⁶ cm/s
- efflux ratio [8]: < 2
- cell cycle arrest, in words [9]: effectively arrested cell cycle progression

Compound: CNc1cccc(-n2ccc(C(=O)c3cc(OC)c(OC)c(OC)c3)c2)c1 [Compound 24, (1-(3-(Methylamino)phenyl)-1H-pyrrol-3-yl)(3,4,5-trimethoxyphenyl)methanone]
- IC50 [4]: ≤ 1000 nM

Compound: COc1cc(C(=O)c2ccn(-c3cccc(NC(=N)N)c3)c2)cc(OC)c1OC.Cl [Compound 27, 1-(3-(3-(3,4,5-Trimethoxybenzoyl)-1H-pyrrol-1-yl)phenyl)-guanidine Hydrochloride]
- cell cycle arrest, in words [6]: effectively arrested cell cycle progression
- cell cycle arrest, in words [7]: effectively arrested cell cycle progression
- cell cycle arrest, in words [9]: effectively arrested cell cycle progression

Compound: COc1cc(C(=O)c2ccn(-c3cccc(NS(C)(=O)=O)c3)c2)cc(OC)c1OC [Compound 28, N-(3-(3-(3,4,5-Trimethoxybenzoyl)-1H-pyrrol-1-yl)phenyl)-methanesulfonamide]
- IC50 [4]: ≤ 1000 nM

Compound: COc1cc(C(=O)c2ccn(-c3cccc(N4CCCCC4)c3)c2)cc(OC)c1OC [Compound 31, (1-(3-(Piperidin-1-yl)phenyl)-1H-pyrrol-3-yl)(3,4,5-trimethoxyphenyl)methanone]
- IC50 [4]: > 20000 nM

Compound: COc1cc(C(=O)c2ccn(-c3cccc(C)c3)c2)cc(OC)c1OC [Compound 33, (1-(3-Tolyl)-1H-pyrrol-3-yl)(3,4,5-trimethoxyphenyl)methanone]
- IC50 [4]: ≤ 1000 nM

Compound: COc1cc(C(=O)c2ccn(-c3ccc(C)cc3)c2)cc(OC)c1OC [Compound 34, (1-(4-Tolyl)-1H-pyrrol-3-yl)(3,4,5-trimethoxyphenyl)methanone]
- IC50 [4]: ≤ 1000 nM

Compound: COc1cc(C(=O)c2ccn(-c3ccc(OC(C)C)cc3)c2)cc(OC)c1OC [Compound 40, (1-(4-Isopropoxyphenyl)-1H-pyrrol-3-yl)(3,4,5-trimethoxyphenyl)-methanone]
- IC50 [4]: > 20000 nM

Compound: COc1cc(C(=O)c2ccn(-c3cccc(OCc4ccccc4)c3)c2)cc(OC)c1OC [Compound 41, (1-(3-(Benzyloxy)phenyl)-1H-pyrrol-3-yl)(3,4,5-trimethoxyphenyl)methanone]
- IC50 [4]: > 20000 nM

Compound: COc1ccc(-n2ccc(C(=O)c3cc(OC)c(OC)c(OC)c3)c2)cc1[N+](=O)[O-] [Compound 45, (1-(4-Methox y-3-ni tro phenyl)-1H-pyrrol-3-yl)(3,4,5-trimethoxyphenyl)methanone]
- IC50 [4]: 15000 ± 70 nM

Compound: COc1cc(-n2ccc(C(=O)c3ccccc3)c2)cc(OC)c1OC [Compound 50, Phenyl(1-(3,4,5-trimethoxyphenyl)-1H-pyrrol-3-yl)methanone]
- IC50 [4]: > 20000 nM

Compound: COc1ccc(C(=O)c2ccn(-c3cc(OC)c(OC)c(OC)c3)c2)cc1OC(C)C [Compound 53, (3-Isopropoxy-4-methoxyphenyl)(1-(3,4,5-trimethoxyphenyl)-1H-pyrrol-3-yl)methanone]
- IC50 [4]: > 20000 nM

Compound: CC(=O)O[C@H]1C(=O)[C@@]2(C)[C@H]([C@H](OC(=O)c3ccccc3)[C@]3(O)C[C@H](OC(=O)[C@H](O)[C@@H](NC(=O)c4ccccc4)c4ccccc4)C(C)=C1C3(C)C)[C@]1(OC(C)=O)CO[C@@H]1C[C@@H]2O [PTX, paclitaxel]
- IC50 [10]: 2037 ± 2 nM
- IC50 [1]: 7 ± 2 nM

Compound: CC[C@]1(O)C[C@@H]2CN(CCc3c([nH]c4ccccc34)[C@@](C(=O)OC)(c3cc4c(cc3OC)N(C)[C@H]3[C@@](O)(C(=O)OC)[C@H](OC(C)=O)[C@]5(CC)C=CCN6CC[C@]43[C@@H]65)C2)C1 [VBL, vinblastine]
- IC50 [11]: 30 ± 0.8 nM
- IC50 [1]: 20 ± 2 nM
- IC50 [12]: 10 ± 0.6 nM

Compound: CC[C@]1(O)C[C@H]2CN(CCc3c([nH]c4ccccc34)[C@@](C(=O)OC)(c3cc4c(cc3OC)N(C=O)[C@H]3[C@@](O)(C(=O)OC)[C@H](OC(C)=O)[C@]5(CC)C=CCN6CC[C@]43[C@@H]65)C2)C1 [VCR, vincristine]
- IC50 [10]: 177 ± 1.6 nM

Compound: (3-Isopropoxy-4-methoxyphenyl)(1-(3,4,5-trimethoxyphenyl)-1H-pyrrol-3-yl)methanone [Compound 52]
- IC50 [4]: > 20000 nM
